Literature values as cited in article PMC10893631, “Receptor-based pharmacophore modeling, molecular docking, synthesis and biological evaluation of novel VEGFR-2, FGFR-1, and BRAF multi-kinase inhibitors” (BMC Chemistry, 2024).

Target: T1, VEGFR-2 (Homo sapiens, UniProt P35968)
T1 construct: purchased BPS Biosciences 40325
Set-up: method as in PMID 17696416
Settings: cited from earlier work

T1 sequence (P35968 20-1356): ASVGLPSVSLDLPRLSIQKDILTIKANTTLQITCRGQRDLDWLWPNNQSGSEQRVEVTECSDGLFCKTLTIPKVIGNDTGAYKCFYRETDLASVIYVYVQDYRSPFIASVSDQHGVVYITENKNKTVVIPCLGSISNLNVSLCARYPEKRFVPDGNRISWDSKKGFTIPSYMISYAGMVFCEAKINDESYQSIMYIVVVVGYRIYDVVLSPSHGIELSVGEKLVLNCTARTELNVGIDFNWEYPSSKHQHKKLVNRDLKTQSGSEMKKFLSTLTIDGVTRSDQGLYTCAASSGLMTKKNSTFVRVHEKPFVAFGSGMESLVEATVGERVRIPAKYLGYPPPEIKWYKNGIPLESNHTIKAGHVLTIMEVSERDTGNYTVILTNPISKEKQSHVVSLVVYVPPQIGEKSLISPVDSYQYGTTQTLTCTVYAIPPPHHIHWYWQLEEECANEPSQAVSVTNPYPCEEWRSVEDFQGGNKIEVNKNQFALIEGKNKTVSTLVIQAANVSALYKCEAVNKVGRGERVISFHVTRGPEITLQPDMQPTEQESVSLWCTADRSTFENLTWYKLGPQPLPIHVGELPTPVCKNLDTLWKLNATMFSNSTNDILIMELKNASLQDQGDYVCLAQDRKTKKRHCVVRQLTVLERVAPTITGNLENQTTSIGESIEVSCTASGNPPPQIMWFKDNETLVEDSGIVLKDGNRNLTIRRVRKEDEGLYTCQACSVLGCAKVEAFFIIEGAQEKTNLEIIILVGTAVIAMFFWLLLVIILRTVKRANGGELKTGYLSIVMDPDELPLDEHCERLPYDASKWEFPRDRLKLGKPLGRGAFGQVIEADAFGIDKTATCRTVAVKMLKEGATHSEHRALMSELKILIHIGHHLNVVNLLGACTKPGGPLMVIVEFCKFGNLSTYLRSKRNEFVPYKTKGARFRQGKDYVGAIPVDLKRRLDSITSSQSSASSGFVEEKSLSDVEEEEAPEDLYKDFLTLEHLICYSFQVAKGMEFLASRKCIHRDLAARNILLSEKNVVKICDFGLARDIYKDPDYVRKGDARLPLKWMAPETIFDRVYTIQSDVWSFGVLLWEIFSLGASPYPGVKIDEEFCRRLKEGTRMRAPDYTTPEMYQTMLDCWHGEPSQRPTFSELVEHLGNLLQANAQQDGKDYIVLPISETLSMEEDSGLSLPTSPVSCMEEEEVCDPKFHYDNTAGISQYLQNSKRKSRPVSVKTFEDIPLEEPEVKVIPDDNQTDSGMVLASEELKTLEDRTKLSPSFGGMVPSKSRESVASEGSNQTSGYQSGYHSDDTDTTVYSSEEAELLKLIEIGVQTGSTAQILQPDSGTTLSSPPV

SMILES: CNC(=O)c1cc(Oc2ccc3[nH]c(Nc4ccc(C(F)(F)F)c(Cl)c4)nc3c2)ccn1 [II]
- Ki: 8.7 nM
